“Also recorded” adds a separate entry of the source.
Test system: Cyp1b1^−/− Tyr^c−2J/c−2J (albino) double mutants
Assay: L-DOPA supplementation via drinking water throughout ocular development; histologic and electron microscopic grading of angle dysgenesis
Format: in vivo, mice
Settings: for developmental abnormalities in the iridocorneal angle / severe angle dysgenesis (histology): L-DOPA 1 mg/ml in drinking water from gestation until harvest at approximately 4 weeks
Source text: Applicant hypothesized that tyrosinase might affect angle development through modulation of L-DOPA levels. Tyrosinase is a monooxygenase that converts tyrosine to L-DOPA and L-DOPA to dopaquinone. L-DOPA affects development and is the precursor of catecholamines, which are important developmental regulators (15-17). To investigate whether L-DOPA is a critical molecule in angle development, Applicant administered water containing L-DOPA or standard drinking water to Cyp1b1^-/- Tyr^c-2J/c-2J (albino) double mutants throughout ocular development [their mothers received this water throughout the period of in utero development (12)]. […] Despite the profound rescue in L-DOPA treated albino Cyp1b1^-/- mice, mild abnormalities of similar severity to those observed in pigmented Cyp1b1^-/- mice remained. […] These include genes that affect L-DOPA levels, affect the metabolism of L-DOPA to other developmentally important molecules or affect the signaling of these molecules in developmental/physiologic pathways. L-DOPA treatment-L-DOPA (dihydroxyphenylalanine, 15,431-8, Aldrich Chemical Company, Inc., Milwaukee, Wis.) was supplied to the animals via their drinking water at a concentration of 1 mg/ml (5, 6). L-DOPA was dissolved into acidic water (pH of 3) to avoid oxidation. Animals were either on L-DOPA for their entire gestation or started on L-DOPA at embryonic day E5.5 (prior to eye formation). Eyes were harvested at approximately 4 weeks of age and L-DOPA treatment was continued until the time of harvest. Freshly made L-DOPA water was supplied every three days. Histologic and electron microscopic analyses-Applicant fixed and processed eyes for plastic sectioning and electron microscopy as previously reported (1, 9). All tissues were harvested from mice at ages after angle formation. For light microscopy, eyes were […] sectioned and up to 56 sections were collected from each of 3 different ocular regions for all eyes. […] Collected regions included nasal lens periphery, central lens, and a region halfway between the lens center and the peripheral lens. Sections were stained with hematoxylin and eosin. Due to the potential for artifact in the delicate tissues analyzed abnormalities had to be present in multiple sections from the same region. Nine to twelve eyes were analyzed for each genotype on each genetic background. Applicant devised a grading scheme to allow comparison between different eyes. Applicant separately assessed the severity of defects affecting Schlemm's canal (SC), trabecular meshwork (TM) and creating synechiae. For each phenotype, Applicant graded 6 similarly spaced sections for each ocular region. Applicant graded the severity of abnormalities in both angles of a section. Thus, Applicant graded 36 angles (6 sections×2 angles×3 regions) from different ocular regions for each eye. Applicant designated a grade of 0, 1, 2, 3, or 4 (increasing in severity from 0 to 4, see below) to each phenotype for each angle. For an eye, the total grade could be any value between 0 and 144 (36 angles×4). […] To assess the difference in the severity of angle dysgenesis between the albino and pigmented eyes, Applicant graded approximately 10 eyes from mice of each Cyp1b1 and Foxc1 genotype. Due to the continuous nature of the grade, Applicant present the data as mean± SEM and compared genotypes using two tailed student t-tests. Applicant checked the consistency of the grading method by assessing 8 random eyes on a second occasion without knowledge of the initial grade. […]

## N[C@@H](Cc1ccc(O)c(O)c1)C(=O)O [L-DOPA, 3,4-dihydroxyphenylalanine]
Cyp1b1^−/− Tyr^c−2J/c−2J mice, B6 background, versus untreated
  developmental abnormalities in the iridocorneal angle / severe angle dysgenesis (histology): alleviated; also recorded: prevent the severe angle dysgenesis
Cyp1b1^−/− Tyr^c−2J/c−2J mice, B6 background, versus untreated, listed as LDOPA
  developmental abnormalities in the iridocorneal angle / severe angle dysgenesis (histology): substantially prevented developmental abnormalities
Cyp1b1^−/− Tyr^c−2J/c−2J mice, B6 background, L-DOPA 1 mg/ml in drinking water, versus untreated
  ultrastructure of the trabecular meshwork (electron micrographs): rescues the ultrastructure of the trabecular meshwork
Cyp1b1^−/− Tyr^c−2J/c−2J mice, L-DOPA 1 mg/ml in drinking water, grade 0-144 per eye, p<0.001 for all assessed phenotypes versus untreated
  mean severity grades of developmental dysgenesis (Schlemm's canal, trabecular meshwork, synechiae): can be alleviated
L-DOPA treated albino Cyp1b1^−/− mice, compared with pigmented Cyp1b1^−/− mice
  abnormalities remaining after L-DOPA treatment: mild abnormalities of similar severity to those observed in pigmented Cyp1b1^−/− mice remained
